{"source": "paper PMC5218480", "about": "(PLoS ONE, 2017)", "tested_on": "MV-4-11 cells", "assay": "Gene expression microarray analysis (Affymetrix PrimeView) and GSEA", "assay_type": "cell-based, human", "set-up": "RFU PODN (11730768_x_at) / Fold change /veh PODN (11730768_x_at) / RFU LINC00158 (11744669_a_at) / Fold change /veh LINC00158 (11744669_a_at) / RFU DUSP10 (11751237_a_at) / Fold change /veh DUSP10 (11751237_a_at) / RFU ID3 (11757404_x_at) / Fold change /veh ID3 (11757404_x_at) / RFU PLEKHG5 (11737974_s_at) / Fold change /veh PLEKHG5 (11737974_s_at) / RFU LRRC4B (11730491_at) / Fold change /veh LRRC4B (11730491_at) / RFU GIMAP4 (11747438_a_at) / Fold change /veh GIMAP4 (11747438_a_at) / RFU KRT8 (11758183_x_at) / Fold change /veh KRT8 (11758183_x_at) / RFU CNN1 (11734310_a_at) / Fold change /veh CNN1 (11734310_a_at) / RFU VPS37D (11726825_at) / Fold change /veh VPS37D (11726825_at) / RFU C10orf10 (11716522_x_at) / Fold change /veh C10orf10 (11716522_x_at) / RFU KIR2DL2 /// KIR2DL4 /// KIR2DL5A /// KIR2DL5B /// KIR2DS1 /// KIR2DS2 /// KIR2DS3 /// KIR2DS4 /// KIR3DL3 /// KIR3DL3 /// KIR3DS1 (11738374_at) / Fold change /veh KIR2DL2 /// KIR2DL4 /// KIR2DL5A /// KIR2DL5B /// KIR2DS1 /// KIR2DS2 /// KIR2DS3 /// KIR2DS4 /// KIR3DL3 /// KIR3DL3 /// KIR3DS1 (11738374_at) / RFU C1QL1 (11718748_at) / Fold change /veh C1QL1 (11718748_at) / RFU TMPRSS4 (11747572_a_at) / Fold change /veh TMPRSS4 (11747572_a_at) / RFU HAMP (11756126_x_at) / Fold change /veh HAMP (11756126_x_at) / RFU RNFT2 (11725882_a_at) / Fold change /veh RNFT2 (11725882_a_at) / RFU NR4A2 (11747474_a_at) / Fold change /veh NR4A2 (11747474_a_at) / RFU ABCC12 (11746883_a_at) / Fold change /veh ABCC12 (11746883_a_at) / RFU TMEM136 (11760407_x_at) / Fold change /veh TMEM136 (11760407_x_at) / RFU CLDN22 /// WWC2 (11732394_at) / Fold change /veh CLDN22 /// WWC2 (11732394_at) / RFU HLA-DPB1 (11760878_x_at) / Fold change /veh HLA-DPB1 (11760878_x_at) / RFU SPINT1 (11716480_a_at) / Fold change /veh SPINT1 (11716480_a_at) / RFU GAP43 (11754022_s_at) / Fold change /veh GAP43 (11754022_s_at) / RFU A4GNT (11735810_at) / Fold change /veh A4GNT (11735810_at) / RFU PRB3 (11715151_x_at) / Fold change /veh PRB3 (11715151_x_at) / RFU TUBB4B (11761932_at) / Fold change /veh TUBB4B (11761932_at) / RFU CAPN14 (11732068_a_at) / Fold change /veh CAPN14 (11732068_a_at) / RFU TMCC2 (11721928_a_at) / Fold change /veh TMCC2 (11721928_a_at) / RFU IRGQ (11745062_a_at) / Fold change /veh IRGQ (11745062_a_at) / RFU FAM174B (11720279_a_at) / Fold change /veh FAM174B (11720279_a_at) / RFU TMPRSS4 (11748680_a_at) / Fold change /veh TMPRSS4 (11748680_a_at) / RFU FAM212B (11763350_a_at) / Fold change /veh FAM212B (11763350_a_at) / RFU PLEKHG5 (11743358_a_at) / Fold change /veh PLEKHG5 (11743358_a_at) / RFU ZSCAN30 (11745921_a_at) / Fold change /veh ZSCAN30 (11745921_a_at) / RFU CMKLR1 (11741424_a_at) / Fold change /veh CMKLR1 (11741424_a_at) / RFU LOC101060620 /// MAPK8IP1 (11723275_at) / Fold change /veh LOC101060620 /// MAPK8IP1 (11723275_at) / RFU SPTSSB (11747773_x_at) / Fold change /veh SPTSSB (11747773_x_at) / RFU PRSS12 (11739890_at) / Fold change /veh PRSS12 (11739890_at) / RFU BIN1 (11741810_x_at) / Fold change /veh BIN1 (11741810_x_at) / RFU WNT11 (11732464_a_at) / Fold change /veh WNT11 (11732464_a_at) / RFU C10orf10 (11716521_a_at) / Fold change /veh C10orf10 (11716521_a_at) / RFU C5orf56 (11738089_at) / Fold change /veh C5orf56 (11738089_at) / RFU CYB561 (11721691_x_at) / Fold change /veh CYB561 (11721691_x_at) / RFU ANKRD19P (11752326_a_at) / Fold change /veh ANKRD19P (11752326_a_at) / RFU OR2T12 /// OR2T33 /// OR2T8 (11738714_s_at) / Fold change /veh OR2T12 /// OR2T33 /// OR2T8 (11738714_s_at) / RFU VCAN (11748164_a_at) / Fold change /veh VCAN (11748164_a_at) / RFU JSRP1 (11732532_at) / Fold change /veh JSRP1 (11732532_at) / RFU KRTAP10-11 (11738290_x_at) / Fold change /veh KRTAP10-11 (11738290_x_at) / RFU MYO3A (11730013_a_at) / Fold change /veh MYO3A (11730013_a_at) / RFU EBF3 (11725865_a_at) / Fold change /veh EBF3 (11725865_a_at) / RFU CAMK2N1 (11719241_x_at) / Fold change /veh CAMK2N1 (11719241_x_at) / RFU C5orf56 (11738088_a_at) / Fold change /veh C5orf56 (11738088_a_at) / RFU OLFML3 (11715873_a_at) / Fold change /veh OLFML3 (11715873_a_at) / RFU LOC100653217 /// NTM (11731650_a_at) / Fold change /veh LOC100653217 /// NTM (11731650_a_at) / RFU MAPK11 (11762145_a_at) / Fold change /veh MAPK11 (11762145_a_at) / RFU FIZ1 (11724087_x_at) / Fold change /veh FIZ1 (11724087_x_at) / RFU OASL (11726364_x_at) / Fold change /veh OASL (11726364_x_at) / RFU SOX15 (11748057_x_at) / Fold change /veh SOX15 (11748057_x_at) / RFU CD79A (11719716_a_at) / Fold change /veh CD79A (11719716_a_at) / RFU HIST1H1D (11736915_at) / Fold change /veh HIST1H1D (11736915_at) / RFU CASKIN2 (11723855_a_at) / Fold change /veh CASKIN2 (11723855_a_at) / RFU LOC730098 (11760151_x_at) / Fold change /veh LOC730098 (11760151_x_at) / RFU OR4N2 (11742367_at) / Fold change /veh OR4N2 (11742367_at) / RFU PRRT2 (11749266_a_at) / Fold change /veh PRRT2 (11749266_a_at) / RFU SNX32 (11753110_a_at) / Fold change /veh SNX32 (11753110_a_at) / RFU CDHR5 (11726645_a_at) / Fold change /veh CDHR5 (11726645_a_at) / RFU RCAN1 (11760418_a_at) / Fold change /veh RCAN1 (11760418_a_at) / RFU FAM167A (11723789_a_at) / Fold change /veh FAM167A (11723789_a_at) / RFU FAM26E (11764081_at) / Fold change /veh FAM26E (11764081_at) / RFU ISYNA1 (11749810_s_at) / Fold change /veh ISYNA1 (11749810_s_at) / RFU ACY1 (11761880_at) / Fold change /veh ACY1 (11761880_at) / RFU 11764098_at / Fold change /veh 11764098_at / RFU SAMD14 (11745864_x_at) / Fold change /veh SAMD14 (11745864_x_at) / RFU NPB (11741838_a_at) / Fold change /veh NPB (11741838_a_at) / RFU TMPRSS6 (11731388_a_at) / Fold change /veh TMPRSS6 (11731388_a_at) / RFU KRTAP10-2 (11738614_at) / Fold change /veh KRTAP10-2 (11738614_at) / RFU ARHGAP8 /// PRR5-ARHGAP8 (11727945_x_at) / Fold change /veh ARHGAP8 /// PRR5-ARHGAP8 (11727945_x_at) / RFU KRTAP5-7 /// NADSYN1 (11734609_at) / Fold change /veh KRTAP5-7 /// NADSYN1 (11734609_at) / RFU RASL12 (11751679_a_at) / Fold change /veh RASL12 (11751679_a_at) / RFU CDKN2B (11736163_a_at) / Fold change /veh CDKN2B (11736163_a_at) / RFU PRF1 (11729649_at) / Fold change /veh PRF1 (11729649_at) / RFU, ZNF638 /// ZNF638-IT1 / Fold change vs veh, ZNF638 /// ZNF638-IT1 / RFU, PANK3 / Fold change vs veh, PANK3 / RFU, SH3YL1 / Fold change vs veh, SH3YL1 / RFU, ZEB2 / Fold change vs veh, ZEB2 / RFU, NRIP1 / Fold change vs veh, NRIP1 / RFU, PTTG1IP / Fold change vs veh, PTTG1IP / RFU, CAPN2 / Fold change vs veh, CAPN2 / RFU, MED14 / Fold change vs veh, MED14 / RFU, SNORA58 / Fold change vs veh, SNORA58 / RFU, C1orf63 / Fold change vs veh, C1orf63 / RFU, LRRFIP1 / Fold change vs veh, LRRFIP1 / RFU, NDUFAF7 / Fold change vs veh, NDUFAF7 / RFU, SLC12A2 / Fold change vs veh, SLC12A2 / RFU, IBTK / Fold change vs veh, IBTK / RFU, ESF1 / Fold change vs veh, ESF1 / Fold change vs veh, TMEM50B / RFU, TAOK1 / Fold change vs veh, TAOK1 / RFU, ACBD3 / Fold change vs veh, ACBD3 / RFU, TMA16 / Fold change vs veh, TMA16 / RFU, RWDD3 / Fold change vs veh, RWDD3 / RFU, BCAT1 / Fold change vs veh, BCAT1 / RFU, EDEM3 / Fold change vs veh, EDEM3 / RFU, TMEM33 / Fold change vs veh, TMEM33 / RFU, WDR75 / Fold change vs veh, WDR75 / RFU, AHCTF1 / Fold change vs veh, AHCTF1 / RFU, TFRC / Fold change vs veh, TFRC / RFU, ZDHHC17 / Fold change vs veh, ZDHHC17 / RFU, NOM1 / Fold change vs veh, NOM1 / RFU, ARL8B / Fold change vs veh, ARL8B / RFU, ZBTB11 / Fold change vs veh, ZBTB11 / RFU, TAMM41 / Fold change vs veh, TAMM41 / RFU, KIAA1704 /// LOC100996395 / Fold change vs veh, KIAA1704 /// LOC100996395 / RFU, ING1 / Fold change vs veh, ING1 / RFU, TRMT61B / Fold change vs veh, TRMT61B / RFU, FUBP3 / Fold change vs veh, FUBP3 / RFU, TP53 / Fold change vs veh, TP53 / RFU, TNKS2 / Fold change vs veh, TNKS2 / RFU, ZFP14 / Fold change vs veh, ZFP14 / RFU, ACTR2 / Fold change vs veh, ACTR2 / RFU, PPP3R1 / Fold change vs veh, PPP3R1 / RFU, PIK3R1 / Fold change vs veh, PIK3R1 / RFU, HNRNPA1 / Fold change vs veh, HNRNPA1 / RFU, RNF170 / Fold change vs veh, RNF170 / RFU, ZNF28 / Fold change vs veh, ZNF28 / RFU, RNGTT / Fold change vs veh, RNGTT / RFU, OGT / Fold change vs veh, OGT / RFU, BRD1 / Fold change vs veh, BRD1 / RFU, MARS / Fold change vs veh, MARS / RFU, ZNF655 / Fold change vs veh, ZNF655 / RFU, FAHD1 / Fold change vs veh, FAHD1 / RFU, BDP1 / Fold change vs veh, BDP1 / RFU, LRRCC1 / Fold change vs veh, LRRCC1 / RFU, ARID1A / Fold change vs veh, ARID1A / RFU, ZNF146 / Fold change vs veh, ZNF146 / RFU, ZNF330 / Fold change vs veh, ZNF330 / RFU, GPN3 / Fold change vs veh, GPN3 / RFU, C9orf123 / Fold change vs veh, C9orf123 / RFU, N4BP2L2 / Fold change vs veh, N4BP2L2 / RFU, ARFIP1 / Fold change vs veh, ARFIP1 / RFU, FAM179B / Fold change vs veh, FAM179B / RFU, BCL10 / Fold change vs veh, BCL10 / RFU, UHRF1BP1L / Fold change vs veh, UHRF1BP1L / RFU, BET1 / Fold change vs veh, BET1 / RFU, CNOT2 / Fold change vs veh, CNOT2 / RFU, ZNF268 / Fold change vs veh, ZNF268 / Fold change vs veh, ZNF507 / RFU, DGCR2 / Fold change vs veh, DGCR2 / RFU, WDSUB1 / Fold change vs veh, WDSUB1 / Fold change vs veh, HSP90B1 /// MIR3652 / RFU, ADSS / Fold change vs veh, ADSS / RFU, GK / Fold change vs veh, GK / RFU, ZNF148 / Fold change vs veh, ZNF148 / RFU, TAF9 / Fold change vs veh, TAF9 / RFU, SLC1A5 / Fold change vs veh, SLC1A5 / RFU, SLMO2 / Fold change vs veh, SLMO2 / RFU, ABCC4 / Fold change vs veh, ABCC4 / RFU, LOC101060439 /// RAP1B / Fold change vs veh, LOC101060439 /// RAP1B / RFU, RFX7 / Fold change vs veh, RFX7 / RFU, GTPBP10 / Fold change vs veh, GTPBP10 / RFU, CNEP1R1 / Fold change vs veh, CNEP1R1 / RFU, BIVM-ERCC5 /// ERCC5 / Fold change vs veh, BIVM-ERCC5 /// ERCC5 / RFU, ILF3 / Fold change vs veh, ILF3 / RFU 11762660_at / Fold change /veh 11762660_at / RFU VCAN (11757783_s_at) / Fold change /veh VCAN (11757783_s_at) / RFU DDX43 (11728927_at) / Fold change /veh DDX43 (11728927_at) / RFU KRT8 (11758188_x_at) / Fold change /veh KRT8 (11758188_x_at) / RFU NKD1 (11759106_at) / Fold change /veh NKD1 (11759106_at) / RFU SRD5A1 (11742802_a_at) / Fold change /veh SRD5A1 (11742802_a_at) / RFU TPSAB1 /// TPSB2 (11721975_s_at) / Fold change /veh TPSAB1 /// TPSB2 (11721975_s_at) / RFU GSTM3 (11746129_a_at) / Fold change /veh GSTM3 (11746129_a_at) / RFU IL23R (11737362_x_at) / Fold change /veh IL23R (11737362_x_at) / RFU TMEM51 (11727254_a_at) / Fold change /veh TMEM51 (11727254_a_at) / RFU PIWIL2 (11732686_x_at) / Fold change /veh PIWIL2 (11732686_x_at) / RFU ORM1 (11744905_x_at) / Fold change /veh ORM1 (11744905_x_at) / RFU CCDC152 (11743942_at) / Fold change /veh CCDC152 (11743942_at) / RFU ECM1 (11717891_a_at) / Fold change /veh ECM1 (11717891_a_at) / RFU IL23R (11748794_a_at) / Fold change /veh IL23R (11748794_a_at) / RFU TNFAIP8L3 (11732012_x_at) / Fold change /veh TNFAIP8L3 (11732012_x_at) / RFU MBOAT4 (11741988_at) / Fold change /veh MBOAT4 (11741988_at) / RFU 11764193_at / Fold change /veh 11764193_at / RFU TMEM53 (11763286_at) / Fold change /veh TMEM53 (11763286_at) / RFU MAGEB2 (11727129_at) / Fold change /veh MAGEB2 (11727129_at) / RFU TMEM200A (11744735_a_at) / Fold change /veh TMEM200A (11744735_a_at) / RFU CCDC152 (11751479_a_at) / Fold change /veh CCDC152 (11751479_a_at) / RFU FAM211A (11726209_a_at) / Fold change /veh FAM211A (11726209_a_at) / RFU RGS16 (11746705_a_at) / Fold change /veh RGS16 (11746705_a_at) / RFU VCAN (11755009_s_at) / Fold change /veh VCAN (11755009_s_at) / RFU RHOB (11743442_s_at) / Fold change /veh RHOB (11743442_s_at) / RFU RGS16 (11720943_a_at) / Fold change /veh RGS16 (11720943_a_at) / RFU RGS16 (11720944_at) / Fold change /veh RGS16 (11720944_at) / RFU, VPS4B / Fold change vs veh, VPS4B / RFU, CREB1 / Fold change vs veh, CREB1 / RFU, DNAJC13 / Fold change vs veh, DNAJC13 / RFU, GNAQ / Fold change vs veh, GNAQ / RFU, CDK5R1 / Fold change vs veh, CDK5R1 / RFU, ZRANB3 / Fold change vs veh, ZRANB3 / RFU, CUL4A / Fold change vs veh, CUL4A / RFU, CCNY / Fold change vs veh, CCNY / RFU, UFL1 / Fold change vs veh, UFL1 / RFU, COG3 / Fold change vs veh, COG3 / RFU, DIAPH2 / Fold change vs veh, DIAPH2 / RFU, SKA2 / Fold change vs veh, SKA2 / RFU, AFF3 / Fold change vs veh, AFF3 / RFU, LMF1 / Fold change vs veh, LMF1 / RFU, IPO11 / Fold change vs veh, IPO11 / RFU, DFFB / Fold change vs veh, DFFB / RFU, FOXP1 / Fold change vs veh, FOXP1 / RFU, CARD8 / Fold change vs veh, CARD8 / RFU, STRN3 / Fold change vs veh, STRN3 / RFU, ADK / Fold change vs veh, ADK / RFU, RASSF2 / Fold change vs veh, RASSF2 / RFU, WIPF1 / Fold change vs veh, WIPF1 / RFU, LARP1B / Fold change vs veh, LARP1B / RFU, RASA1 / Fold change vs veh, RASA1 / RFU, RB1 / Fold change vs veh, RB1 / RFU, PPFIA1 / Fold change vs veh, PPFIA1 / RFU, MAT2A / Fold change vs veh, MAT2A / RFU, CCT5 / Fold change vs veh, CCT5 / RFU, WDR92 / Fold change vs veh, WDR92 / RFU, CUX1 / Fold change vs veh, CUX1 / RFU, TTC7A / Fold change vs veh, TTC7A / RFU, TMEM135 / Fold change vs veh, TMEM135 / RFU, DEPTOR / Fold change vs veh, DEPTOR / RFU, CPM / Fold change vs veh, CPM / RFU, DNAJB6 / Fold change vs veh, DNAJB6 / RFU, CACNA2D3 / Fold change vs veh, CACNA2D3 / RFU, DTX4 / Fold change vs veh, DTX4 / RFU, TFCP2 / Fold change vs veh, TFCP2 / RFU, GMCL1 /// GMCL1P1 / Fold change vs veh, GMCL1 /// GMCL1P1 / RFU, AEBP2 / Fold change vs veh, AEBP2 / RFU, SNHG1 /// SNORD22 /// SNORD25 /// SNORD26 /// SNORD27 /// SNORD28 /// SNORD29 /// SNORD31 / Fold change vs veh, SNHG1 /// SNORD22 /// SNORD25 /// SNORD26 /// SNORD27 /// SNORD28 /// SNORD29 /// SNORD31 / Fold change (Aza/veh), C12orf56 (ProbeSet 11735607_a_at) / Fold change (ACY-1035/veh), C12orf56 (ProbeSet 11735607_a_at) / Fold change (Aza/veh), FGFR1OP (ProbeSet 11751329_s_at) / Fold change (ACY-1035/veh), FGFR1OP (ProbeSet 11751329_s_at) / Fold change (Aza/veh), VPS36 (ProbeSet 11739960_a_at) / Fold change (ACY-1035/veh), VPS36 (ProbeSet 11739960_a_at) / RFU SYPL1 (11715823_x_at) / Fold change /veh SYPL1 (11715823_x_at) / RFU IGFBP7 (11715501_s_at) / Fold change /veh IGFBP7 (11715501_s_at) / RFU REEP3 (11722064_at) / Fold change /veh REEP3 (11722064_at) / RFU IGLL1 (11728026_x_at) / Fold change /veh IGLL1 (11728026_x_at): dose or concentration left out as unconfirmed", "conditions": "ProbeSet 11764057_s_at; LIST B"}
{"compound": "Nc1ncn([C@@H]2O[C@H](CO)[C@@H](O)[C@H]2O)c(=O)n1", "note": "[azacitidine]", "values": [{"measurement": "Fold change vs veh, C1orf63", "value": 1.09}]}
